According to US20110105397A1, “METHOD FOR TREATING HEART FAILURE WITH STRESSCOPIN-LIKE PEPTIDES” (priority 2009, published 2011):
Where “and” joins values, the source holds several entries; their conditions need not be identical. Identical values can stand only once. Like-named read-outs stand apart in the source and are kept apart here. Where a SMILES comes first, the peptide text is derived from it. Where no end group is shown, it is not given here. The star is where a group is joined. Succinimide(1-Et,3-yl) = CCN1C(=O)CC(*)C1=O

Target: T1, human CRHR2 (Homo sapiens, UniProt Q13324)
T1 construct: expressed in transfected cells
T1 sequence (Q13324 1-411): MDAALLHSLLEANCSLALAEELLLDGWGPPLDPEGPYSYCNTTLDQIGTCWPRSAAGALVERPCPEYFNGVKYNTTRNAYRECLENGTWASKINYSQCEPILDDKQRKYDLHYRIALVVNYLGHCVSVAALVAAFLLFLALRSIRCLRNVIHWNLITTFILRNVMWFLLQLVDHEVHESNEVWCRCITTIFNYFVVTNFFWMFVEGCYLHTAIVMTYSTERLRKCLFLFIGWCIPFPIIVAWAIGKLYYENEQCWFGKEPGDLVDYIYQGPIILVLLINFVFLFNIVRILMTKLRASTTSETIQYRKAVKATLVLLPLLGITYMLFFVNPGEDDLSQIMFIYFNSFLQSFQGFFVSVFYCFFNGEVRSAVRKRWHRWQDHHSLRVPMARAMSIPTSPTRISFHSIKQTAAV
Assay: cAMP assay, h-CRHR2 transfected SK-N-MC cells
Format: cell-based
Conditions: for EC50: read-out: pA50 (converted); for Log DR [M]: h-SCP control pA50 minus test compound pA50 within the same assay batch
Outline: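 SK-N-MC cells stably expressing human CRHR2 were treated with peptides (1 pM to 1 μM) for 60 min at 37 °C in IBMX-containing medium, with 10 μM forskolin as positive control. Cells were lysed with 0.5 M HCl and cAMP measured by [125I]-cAMP competition flash plate. A50 came from Hill-equation fits, normalised to h-SCP maximum.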

[1] = Table 13, cysteine mutation, N-ethylmaleimide capping, pegylation

| Compound | EC50 [1] | Log DR [M] (Table 13) | nH (Table 12) | EC50 (Table 12, amidation and N-terminal deletions, normalized to maximum response to h-SCP, 3-5 replicate experiments) | αmax (Table 12, normalized to the maximum response to h-SCP) |
| --- | --- | --- | --- | --- | --- |
| TKFTLSLDVPTNIMNLLFCIAKAKNLRAQAAANAHLMAQI-NH2 [SEQ ID NO: 20, TKFTLSLDVPTNIMNLLFCIAKAKNLRAQAAANAHLMAQI-NH2] | 1 nM | 0.52 |  |  |  |
| TKFTLSLDVPTNIMNLLFNIAKAKCLRAQAAANAHLMAQI-NH2 [SEQ ID NO: 26, TKFTLSLDVPTNIMNLLFNIAKAKCLRAQAAANAHLMAQI-NH2] | 0.363 nM | 0.08 |  |  |  |
| TCFTLSLDVPTNIMNLLFNIAKAKNLRAQAAANAHLMAQI-NH2 [SEQ ID NO: 3, TCFTLSLDVPTNIMNLLFNIAKAKNLRAQAAANAHLMAQI-NH2] | 1.07 nM | 0.72 |  |  |  |
| CC[C@H](C)[C@H](NC(=O)[C@H](CCC(N)=O)NC(=O)[C@H](C)NC(=O)[C@H](CCSC)NC(=O)[C@H](CC(C)C)NC(=O)[C@H](Cc1c[nH]cn1)NC(=O)[C@H](C)NC(=O)[C@H](CC(N)=O)NC(=O)[C@H](C)NC(=O)[C@H](C)NC(=O)[C@H](C)NC(=O)[C@H](CCC(N)=O)NC(=O)[C@H](C)NC(=O)[C@H](CCCNC(=N)N)NC(=O)[C@H](CC(C)C)NC(=O)[C@H](CC(N)=O)NC(=O)[C@H](CCCCN)NC(=O)[C@H](C)NC(=O)[C@H](CCCCN)NC(=O)[C@H](C)NC(=O)[C@@H](NC(=O)[C@H](CC(N)=O)NC(=O)[C@H](Cc1ccccc1)NC(=O)[C@H](CC(C)C)NC(=O)[C@H](CSC1CC(=O)N(CC)C1=O)NC(=O)[C@H](CC(N)=O)NC(=O)[C@H](CCSC)NC(=O)[C@@H](NC(=O)[C@H](CC(N)=O)NC(=O)[C@@H](NC(=O)[C@@H]1CCCN1C(=O)[C@@H](NC(=O)[C@H](CC(=O)O)NC(=O)[C@H](CC(C)C)NC(=O)[C@H](CO)NC(=O)[C@H](CC(C)C)NC(=O)[C@@H](NC(=O)[C@H](Cc1ccccc1)NC(=O)[C@H](CCCCN)NC(=O)[C@@H](N)[C@@H](C)O)[C@@H](C)O)C(C)C)[C@@H](C)O)[C@@H](C)CC)[C@@H](C)CC)C(N)=O (stereo partly shown) [SEQ ID NO: 54, TKFTL SLDVP TNIMN C(-NES)LFNI AKAKN LRAQA AANAH LMAQI-NH2] (H-TKFTLSLDVPTNIMNC(Succinimide(1-Et,3-yl))LFNIAKAKNLRAQAAANAHLMAQI-NH2; N-terminus assumed) | 0.282 nM | −0.08 |  |  |  |
| TKFCLSLDVPTNIMNLLFNIAKAKNLRAQAAANAHLMAQI-NH2 [SEQ ID NO: 5, TKFCLSLDVPTNIMNLLFNIAKAKNLRAQAAANAHLMAQI-NH2] | 1.17 nM | 0.76 |  |  |  |
| H-TKFTLSLDVPTNCMNLLFNIAKAKNLRAQAAANAHLMAQI-NH2 [SEQ ID NO: 14, TKFTLSLDVPTNCMNLLFNIAKAKNLRAQAAANAHLMAQI-NH2] | ~45.7 nM | >2 |  |  |  |
| KFTLSLDVPTNIMNLLFNIAKAKNLRAQAAANAHLMAQI-NH2 [SEQ ID NO: 107, KFTLSLDVPTNIMNLLFNIAKAKNLRAQAAANAHLMAQI-NH2] |  |  | 1.07 | 0.575 nM and 0.562 nM | 111.3 |
| CC[C@H](C)[C@H](NC(=O)[C@H](CCC(N)=O)NC(=O)[C@H](C)NC(=O)[C@H](CCSC)NC(=O)[C@H](CC(C)C)NC(=O)[C@H](Cc1c[nH]cn1)NC(=O)[C@H](C)NC(=O)[C@H](CC(N)=O)NC(=O)[C@H](C)NC(=O)[C@H](C)NC(=O)[C@H](C)NC(=O)[C@H](CCC(N)=O)NC(=O)[C@H](C)NC(=O)[C@H](CCCNC(=N)N)NC(=O)[C@H](CC(C)C)NC(=O)[C@H](CC(N)=O)NC(=O)[C@H](CCCCN)NC(=O)[C@H](C)NC(=O)[C@H](CCCCN)NC(=O)[C@H](C)NC(=O)[C@@H](NC(=O)[C@H](CSC1CC(=O)N(CC)C1=O)NC(=O)[C@H](Cc1ccccc1)NC(=O)[C@H](CC(C)C)NC(=O)[C@H](CC(C)C)NC(=O)[C@H](CC(N)=O)NC(=O)[C@H](CCSC)NC(=O)[C@@H](NC(=O)[C@H](CC(N)=O)NC(=O)[C@@H](NC(=O)[C@@H]1CCCN1C(=O)[C@@H](NC(=O)[C@H](CC(=O)O)NC(=O)[C@H](CC(C)C)NC(=O)[C@H](CO)NC(=O)[C@H](CC(C)C)NC(=O)[C@@H](NC(=O)[C@H](Cc1ccccc1)NC(=O)[C@H](CCCCN)NC(=O)[C@@H](N)[C@@H](C)O)[C@@H](C)O)C(C)C)[C@@H](C)O)[C@@H](C)CC)[C@@H](C)CC)C(N)=O (stereo partly shown) [SEQ ID NO: 52, TKFTL SLDVP TNIMN LLFC(-NES)I AKAKN LRAQA AANAH LMAQI-NH2] (H-TKFTLSLDVPTNIMNLLFC(Succinimide(1-Et,3-yl))IAKAKNLRAQAAANAHLMAQI-NH2; N-terminus assumed) | 0.38 nM | 0.05 |  |  |  |
| TKFTLSLDVPTNIMNLLFNIAKCKNLRAQAAANAHLMAQI-NH2 [SEQ ID NO: 24, TKFTLSLDVPTNIMNLLFNIAKCKNLRAQAAANAHLMAQI-NH2] | 1.15 nM | 0.74 |  |  |  |
| CC[C@H](C)[C@H](NC(=O)[C@H](CC(N)=O)NC(=O)[C@H](Cc1ccccc1)NC(=O)[C@H](CC(C)C)NC(=O)[C@H](CC(C)C)NC(=O)[C@H](CC(N)=O)NC(=O)[C@H](CCSC)NC(=O)[C@@H](NC(=O)[C@H](CC(N)=O)NC(=O)[C@@H](NC(=O)[C@@H]1CCCN1C(=O)[C@@H](NC(=O)[C@H](CC(=O)O)NC(=O)[C@H](CC(C)C)NC(=O)[C@H](CO)NC(=O)[C@H](CC(C)C)NC(=O)[C@@H](NC(=O)[C@H](Cc1ccccc1)NC(=O)[C@H](CCCCN)NC(=O)[C@@H](N)[C@@H](C)O)[C@@H](C)O)C(C)C)[C@@H](C)O)[C@@H](C)CC)C(=O)N[C@@H](C)C(=O)N[C@@H](CCCCN)C(=O)N[C@@H](C)C(=O)N[C@@H](CCCCN)C(=O)N[C@@H](CC(N)=O)C(=O)N[C@@H](CC(C)C)C(=O)N[C@@H](CCCNC(=N)N)C(=O)N[C@@H](C)C(=O)N[C@@H](CCC(N)=O)C(=O)N[C@@H](C)C(=O)N[C@@H](C)C(=O)N[C@@H](C)C(=O)N[C@@H](CC(N)=O)C(=O)N[C@@H](C)C(=O)N[C@@H](Cc1c[nH]cn1)C(=O)N[C@@H](CC(C)C)C(=O)N[C@@H](CCSC)C(=O)N[C@@H](C)C(=O)N[C@@H](CCC(N)=O)C(=O)N[C@@H](CSC1CC(=O)N(CC)C1=O)C(N)=O (stereo partly shown) [SEQ ID NO: 42, TKFTLSLDVPTNIMNLLFNIAKAKNLRAQAAANAHLMAQC(-NES)-NH2] (H-TKFTLSLDVPTNIMNLLFNIAKAKNLRAQAAANAHLMAQC(Succinimide(1-Et,3-yl))-NH2; N-terminus assumed) | ~17.8 nM | ~1.72 |  |  |  |
| TKFTLSLDVPTNIMNLLFNIACAKNLRAQAAANAHLMAQI-NH2 [SEQ ID NO: 23, TKFTLSLDVPTNIMNLLFNIACAKNLRAQAAANAHLMAQI-NH2] | 2.82 nM | 1.13 |  |  |  |

The next lines start with results.

| EC50 [1] | Log DR [M] (Table 13) | Compound | nH (Table 12) | EC50 (Table 12, amidation and N-terminal deletions, normalized to maximum response to h-SCP, 3-5 replicate experiments) | αmax (Table 12, normalized to the maximum response to h-SCP) |
| --- | --- | --- | --- | --- | --- |
| 1.07 nM | 0.72 | CKFTLSLDVPTNIMNLLFNIAKAKNLRAQAAANAHLMAQI-NH2 [SEQ ID NO: 2, CKFTLSLDVPTNIMNLLFNIAKAKNLRAQAAANAHLMAQI-NH2] |  |  |  |
| 9.77 nM | 1.67 | H-TKFTLSLDVPTNIMNLLCNIAKAKNLRAQAAANAHLMAQI-NH2 [SEQ ID NO: 19, TKFTLSLDVPTNIMNLLCNIAKAKNLRAQAAANAHLMAQI-NH2] |  |  |  |
| 0.162 nM | −0.32 | CC[C@H](C)[C@H](NC(=O)[C@H](CCC(N)=O)NC(=O)[C@H](C)NC(=O)[C@H](CCSC)NC(=O)[C@H](CC(C)C)NC(=O)[C@H](CSC1CC(=O)N(CC)C1=O)NC(=O)[C@H](C)NC(=O)[C@H](CC(N)=O)NC(=O)[C@H](C)NC(=O)[C@H](C)NC(=O)[C@H](C)NC(=O)[C@H](CCC(N)=O)NC(=O)[C@H](C)NC(=O)[C@H](CCCNC(=N)N)NC(=O)[C@H](CC(C)C)NC(=O)[C@H](CC(N)=O)NC(=O)[C@H](CCCCN)NC(=O)[C@H](C)NC(=O)[C@H](CCCCN)NC(=O)[C@H](C)NC(=O)[C@@H](NC(=O)[C@H](CC(N)=O)NC(=O)[C@H](Cc1ccccc1)NC(=O)[C@H](CC(C)C)NC(=O)[C@H](CC(C)C)NC(=O)[C@H](CC(N)=O)NC(=O)[C@H](CCSC)NC(=O)[C@@H](NC(=O)[C@H](CC(N)=O)NC(=O)[C@@H](NC(=O)[C@@H]1CCCN1C(=O)[C@@H](NC(=O)[C@H](CC(=O)O)NC(=O)[C@H](CC(C)C)NC(=O)[C@H](CO)NC(=O)[C@H](CC(C)C)NC(=O)[C@@H](NC(=O)[C@H](Cc1ccccc1)NC(=O)[C@H](CCCCN)NC(=O)[C@@H](N)[C@@H](C)O)[C@@H](C)O)C(C)C)[C@@H](C)O)[C@@H](C)CC)[C@@H](C)CC)C(N)=O (stereo partly shown) [SEQ ID NO: 43, TKFTLSLDVPTNIMNLLFNIAKAKNLRAQAAANAC(-NES) LMAQI-NH2] (H-TKFTLSLDVPTNIMNLLFNIAKAKNLRAQAAANAC(Succinimide(1-Et,3-yl))LMAQI-NH2) |  |  |  |
| 1.74 nM | 0.82 | TKFTLSLDVCTNIMNLLFNIAKAKNLRAQAAANAHLMAQI-NH2 [SEQ ID NO: 11, TKFTLSLDVCTNIMNLLFNIAKAKNLRAQAAANAHLMAQI-NH2] |  |  |  |
| 0.832 nM | 0.55 | TKFTLSLDVPTNIMNLLFNIAKAKNLRAQAAANAHLMACI-NH2 [SEQ ID NO: 40, TKFTLSLDVPTNIMNLLFNIAKAKNLRAQAAANAHLMACI-NH2] |  |  |  |
| 3.98 nM | 1.28 | TKFTLSLDVPTNIMNLLFNIAKAKNLRACAAANAHLMAQI-NH2 [SEQ ID NO: 30, TKFTLSLDVPTNIMNLLFNIAKAKNLRACAAANAHLMAQI-NH2] |  |  |  |
| 0.257 nM | −0.01 | TKFTLSLDVPTCIMNLLFNIAKAKNLRAQAAANAHLMAQI-NH2 [SEQ ID NO: 13, TKFTLSLDVPTCIMNLLFNIAKAKNLRAQAAANAHLMAQI-NH2] |  |  |  |
